Three compounds from patent US11208412B2 (DAEGU-GYEONGBUK MEDICAL INNOVATION FOUNDATION, priority 2017, dated 2021) can be followed below.

Holding throughout (assay): Kinase selectivity, DiscoverX scanMAX Kinase assay panel (% control)
Holding throughout (type): binding

For experiment [1], the target named is T1, kinases of the scanMAX Kinase assay panel (Homo sapiens, UniProt P08069).
T1 construct: purchased DiscoverX Co. (contract measurement) scanMAX Kinase assay panel
As to conditions: IGF1R; 1 uM. The essentials:
(§1)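 Read-out is % control, normalised so a positive-control compound sits at 0% and DMSO at 100%: (test − positive)/(negative − positive)×100. Each kinase received the compound at 1 uM in DMSO. A value below 35% counts as activity.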

In experiment [2] the target is T2, kinases of the scanMAX Kinase assay panel (Homo sapiens, UniProt O14976).
T2 construct: purchased DiscoverX Co. (contract measurement) scanMAX Kinase assay panel
T2 sequence (O14976 1-1311): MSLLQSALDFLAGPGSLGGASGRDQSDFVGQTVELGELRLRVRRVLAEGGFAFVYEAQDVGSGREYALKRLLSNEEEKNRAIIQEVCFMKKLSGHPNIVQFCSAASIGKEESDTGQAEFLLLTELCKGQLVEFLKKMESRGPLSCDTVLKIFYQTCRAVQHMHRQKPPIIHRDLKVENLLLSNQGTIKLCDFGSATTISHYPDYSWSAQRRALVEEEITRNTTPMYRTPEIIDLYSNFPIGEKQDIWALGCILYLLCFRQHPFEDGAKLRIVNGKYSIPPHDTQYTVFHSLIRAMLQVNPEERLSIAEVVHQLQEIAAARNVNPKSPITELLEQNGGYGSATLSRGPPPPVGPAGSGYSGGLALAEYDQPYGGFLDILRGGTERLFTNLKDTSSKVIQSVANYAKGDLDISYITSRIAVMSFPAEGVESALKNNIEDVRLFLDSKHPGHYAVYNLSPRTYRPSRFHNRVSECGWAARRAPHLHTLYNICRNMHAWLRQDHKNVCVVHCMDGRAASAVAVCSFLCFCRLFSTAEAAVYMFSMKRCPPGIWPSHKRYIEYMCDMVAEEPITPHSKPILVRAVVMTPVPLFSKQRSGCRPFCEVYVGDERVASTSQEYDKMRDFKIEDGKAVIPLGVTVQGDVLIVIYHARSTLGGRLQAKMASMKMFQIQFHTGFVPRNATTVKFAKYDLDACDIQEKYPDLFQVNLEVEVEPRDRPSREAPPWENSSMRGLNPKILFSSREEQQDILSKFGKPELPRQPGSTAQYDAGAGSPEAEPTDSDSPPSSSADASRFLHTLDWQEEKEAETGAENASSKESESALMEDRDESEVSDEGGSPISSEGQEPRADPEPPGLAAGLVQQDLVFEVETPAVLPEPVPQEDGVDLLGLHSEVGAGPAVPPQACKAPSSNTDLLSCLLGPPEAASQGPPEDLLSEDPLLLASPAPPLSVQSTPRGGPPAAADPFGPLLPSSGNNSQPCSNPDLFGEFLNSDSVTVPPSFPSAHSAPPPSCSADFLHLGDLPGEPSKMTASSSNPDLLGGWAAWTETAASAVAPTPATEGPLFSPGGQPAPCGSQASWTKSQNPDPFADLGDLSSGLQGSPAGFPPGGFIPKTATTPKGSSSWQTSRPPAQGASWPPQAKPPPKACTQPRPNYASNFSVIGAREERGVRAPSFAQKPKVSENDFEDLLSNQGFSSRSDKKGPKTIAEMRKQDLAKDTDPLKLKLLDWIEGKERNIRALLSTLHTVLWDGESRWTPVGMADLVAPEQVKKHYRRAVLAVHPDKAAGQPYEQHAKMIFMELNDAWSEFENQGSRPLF
As to conditions: GAK; 1 uM. The essentials:
as §1

Experiment [3] addresses T3, kinases of the scanMAX Kinase assay panel (Homo sapiens, UniProt Q8TDR2).
T3 construct: purchased DiscoverX Co. (contract measurement) scanMAX Kinase assay panel
As to conditions: kinase STK35; 1 uM in DMSO. Summed up:
as §1

Experiment [4] has as its target T4, kinases of the scanMAX Kinase assay panel (Homo sapiens, UniProt Q12852).
T4 construct: purchased DiscoverX Co. (contract measurement) scanMAX Kinase assay panel
T4 sequence (Q12852 1-859): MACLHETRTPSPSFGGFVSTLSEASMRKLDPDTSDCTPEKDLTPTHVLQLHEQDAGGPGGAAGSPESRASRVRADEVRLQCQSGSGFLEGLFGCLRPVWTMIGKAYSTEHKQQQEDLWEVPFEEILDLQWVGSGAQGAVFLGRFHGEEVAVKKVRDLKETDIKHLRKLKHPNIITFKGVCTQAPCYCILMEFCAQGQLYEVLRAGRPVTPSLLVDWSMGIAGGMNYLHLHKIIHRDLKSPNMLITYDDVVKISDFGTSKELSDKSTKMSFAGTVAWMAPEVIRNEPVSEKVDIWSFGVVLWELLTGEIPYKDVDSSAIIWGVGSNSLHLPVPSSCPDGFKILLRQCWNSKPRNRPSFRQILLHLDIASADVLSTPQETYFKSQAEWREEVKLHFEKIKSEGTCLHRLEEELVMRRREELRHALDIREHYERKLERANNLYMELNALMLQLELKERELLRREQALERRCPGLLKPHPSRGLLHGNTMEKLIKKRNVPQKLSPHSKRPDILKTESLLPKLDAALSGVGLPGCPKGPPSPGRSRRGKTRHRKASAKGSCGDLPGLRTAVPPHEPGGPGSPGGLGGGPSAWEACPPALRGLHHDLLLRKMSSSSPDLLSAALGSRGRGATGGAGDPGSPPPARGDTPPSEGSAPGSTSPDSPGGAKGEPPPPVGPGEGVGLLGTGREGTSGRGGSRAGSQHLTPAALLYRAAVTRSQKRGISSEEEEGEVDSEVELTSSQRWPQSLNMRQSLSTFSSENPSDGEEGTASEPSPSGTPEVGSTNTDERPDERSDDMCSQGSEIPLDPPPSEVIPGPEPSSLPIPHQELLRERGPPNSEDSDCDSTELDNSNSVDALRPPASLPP
Conditions: DLK; 1 uM. Summed up:
as §1

Experiment [5] addresses T5, kinases of the scanMAX Kinase assay panel (Homo sapiens, UniProt P08581).
T5 construct: purchased DiscoverX Co. (contract measurement) scanMAX Kinase assay panel
Conditions: MET; 1 uM. Summed up:
as §1

In experiment [6] the target is T6, kinases of the scanMAX Kinase assay panel (Homo sapiens, UniProt P45983).
T6 construct: purchased DiscoverX Co. (contract measurement) scanMAX Kinase assay panel
Conditions: JNK1; 1 uM. Summed up:
as §1

Structures are written as SMILES.

T3 sequence (Q8TDR2 whole entry): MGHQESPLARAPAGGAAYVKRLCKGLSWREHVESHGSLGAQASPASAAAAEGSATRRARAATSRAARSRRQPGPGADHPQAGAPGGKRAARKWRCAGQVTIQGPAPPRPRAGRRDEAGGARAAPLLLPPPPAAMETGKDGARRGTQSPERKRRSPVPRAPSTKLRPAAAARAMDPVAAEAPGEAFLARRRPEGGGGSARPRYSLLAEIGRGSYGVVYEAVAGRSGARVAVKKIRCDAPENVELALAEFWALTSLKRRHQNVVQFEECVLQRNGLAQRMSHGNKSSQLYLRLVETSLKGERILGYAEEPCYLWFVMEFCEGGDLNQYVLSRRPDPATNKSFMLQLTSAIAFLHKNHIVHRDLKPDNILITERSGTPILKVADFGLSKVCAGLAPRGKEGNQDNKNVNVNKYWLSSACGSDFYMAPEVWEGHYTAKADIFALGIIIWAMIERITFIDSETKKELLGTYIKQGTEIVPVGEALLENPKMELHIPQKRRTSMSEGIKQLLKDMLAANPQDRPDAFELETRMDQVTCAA
T5 sequence (P08581 25-1390): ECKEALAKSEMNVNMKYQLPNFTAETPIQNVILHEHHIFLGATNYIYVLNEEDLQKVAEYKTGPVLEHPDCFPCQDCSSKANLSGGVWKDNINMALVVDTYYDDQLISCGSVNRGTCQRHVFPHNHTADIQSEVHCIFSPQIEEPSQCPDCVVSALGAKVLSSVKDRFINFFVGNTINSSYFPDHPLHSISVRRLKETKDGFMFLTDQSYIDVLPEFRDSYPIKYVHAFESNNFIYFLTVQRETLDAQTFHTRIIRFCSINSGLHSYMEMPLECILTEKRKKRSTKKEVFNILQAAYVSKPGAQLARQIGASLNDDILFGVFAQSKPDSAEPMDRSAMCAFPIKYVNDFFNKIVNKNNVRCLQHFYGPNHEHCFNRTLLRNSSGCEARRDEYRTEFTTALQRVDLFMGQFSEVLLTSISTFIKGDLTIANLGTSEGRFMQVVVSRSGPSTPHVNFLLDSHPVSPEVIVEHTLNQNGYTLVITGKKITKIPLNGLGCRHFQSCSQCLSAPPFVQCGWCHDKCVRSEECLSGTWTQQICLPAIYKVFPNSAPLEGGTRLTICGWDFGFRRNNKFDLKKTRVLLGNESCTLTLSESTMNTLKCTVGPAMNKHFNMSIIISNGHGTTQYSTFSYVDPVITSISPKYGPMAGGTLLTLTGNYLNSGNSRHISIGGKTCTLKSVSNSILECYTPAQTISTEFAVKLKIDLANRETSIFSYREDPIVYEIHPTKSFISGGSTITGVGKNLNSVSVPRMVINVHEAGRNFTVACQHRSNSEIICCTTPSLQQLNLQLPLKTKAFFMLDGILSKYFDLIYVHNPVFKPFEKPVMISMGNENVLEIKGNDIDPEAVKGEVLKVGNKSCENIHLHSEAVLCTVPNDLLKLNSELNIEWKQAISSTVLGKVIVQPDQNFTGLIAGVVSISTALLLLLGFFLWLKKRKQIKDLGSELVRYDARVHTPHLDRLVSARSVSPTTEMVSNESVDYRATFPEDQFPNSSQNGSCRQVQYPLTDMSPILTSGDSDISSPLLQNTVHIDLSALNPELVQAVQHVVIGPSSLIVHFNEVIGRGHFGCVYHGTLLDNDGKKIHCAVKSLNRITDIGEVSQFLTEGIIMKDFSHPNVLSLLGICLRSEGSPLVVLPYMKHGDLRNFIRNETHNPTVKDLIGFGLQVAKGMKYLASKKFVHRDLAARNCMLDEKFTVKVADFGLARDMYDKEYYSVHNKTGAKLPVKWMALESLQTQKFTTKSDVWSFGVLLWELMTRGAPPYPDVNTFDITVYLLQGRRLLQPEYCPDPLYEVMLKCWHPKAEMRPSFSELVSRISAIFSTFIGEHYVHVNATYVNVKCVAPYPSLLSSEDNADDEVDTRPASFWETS
T1 sequence (P08069 31-1367): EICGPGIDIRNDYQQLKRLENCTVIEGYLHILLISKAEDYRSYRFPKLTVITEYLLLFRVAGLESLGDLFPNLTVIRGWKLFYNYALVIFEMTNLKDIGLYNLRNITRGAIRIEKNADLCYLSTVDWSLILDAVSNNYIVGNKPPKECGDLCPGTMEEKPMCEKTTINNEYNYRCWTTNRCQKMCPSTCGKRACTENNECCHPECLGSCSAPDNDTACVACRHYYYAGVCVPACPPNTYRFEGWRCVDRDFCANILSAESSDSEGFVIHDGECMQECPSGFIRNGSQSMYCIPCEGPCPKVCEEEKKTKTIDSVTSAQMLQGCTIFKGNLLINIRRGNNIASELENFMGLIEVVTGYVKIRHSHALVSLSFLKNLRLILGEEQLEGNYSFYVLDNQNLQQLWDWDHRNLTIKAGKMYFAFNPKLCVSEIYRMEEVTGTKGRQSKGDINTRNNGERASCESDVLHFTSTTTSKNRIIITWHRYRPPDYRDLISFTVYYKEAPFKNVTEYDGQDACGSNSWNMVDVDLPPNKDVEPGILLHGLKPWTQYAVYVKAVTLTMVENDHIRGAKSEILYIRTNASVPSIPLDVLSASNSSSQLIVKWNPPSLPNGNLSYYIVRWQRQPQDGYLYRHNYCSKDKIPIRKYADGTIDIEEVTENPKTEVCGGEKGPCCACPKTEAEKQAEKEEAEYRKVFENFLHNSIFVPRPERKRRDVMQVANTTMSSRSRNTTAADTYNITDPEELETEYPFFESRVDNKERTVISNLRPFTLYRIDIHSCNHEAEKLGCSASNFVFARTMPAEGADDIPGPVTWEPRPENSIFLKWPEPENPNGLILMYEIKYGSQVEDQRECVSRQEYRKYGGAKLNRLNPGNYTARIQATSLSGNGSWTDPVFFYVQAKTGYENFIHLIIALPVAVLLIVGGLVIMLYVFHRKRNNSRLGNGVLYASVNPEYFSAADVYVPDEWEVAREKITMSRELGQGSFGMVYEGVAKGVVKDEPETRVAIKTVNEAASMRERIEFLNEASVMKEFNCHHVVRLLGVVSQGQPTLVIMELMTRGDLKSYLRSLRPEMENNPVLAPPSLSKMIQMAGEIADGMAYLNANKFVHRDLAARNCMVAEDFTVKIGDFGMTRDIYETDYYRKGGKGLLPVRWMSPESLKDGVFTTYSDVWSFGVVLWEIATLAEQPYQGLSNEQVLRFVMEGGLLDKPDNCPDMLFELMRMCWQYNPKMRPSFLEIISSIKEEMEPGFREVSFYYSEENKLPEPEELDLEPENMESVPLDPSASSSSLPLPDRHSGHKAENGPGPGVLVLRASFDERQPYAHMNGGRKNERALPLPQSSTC
T6 sequence (P45983 whole entry): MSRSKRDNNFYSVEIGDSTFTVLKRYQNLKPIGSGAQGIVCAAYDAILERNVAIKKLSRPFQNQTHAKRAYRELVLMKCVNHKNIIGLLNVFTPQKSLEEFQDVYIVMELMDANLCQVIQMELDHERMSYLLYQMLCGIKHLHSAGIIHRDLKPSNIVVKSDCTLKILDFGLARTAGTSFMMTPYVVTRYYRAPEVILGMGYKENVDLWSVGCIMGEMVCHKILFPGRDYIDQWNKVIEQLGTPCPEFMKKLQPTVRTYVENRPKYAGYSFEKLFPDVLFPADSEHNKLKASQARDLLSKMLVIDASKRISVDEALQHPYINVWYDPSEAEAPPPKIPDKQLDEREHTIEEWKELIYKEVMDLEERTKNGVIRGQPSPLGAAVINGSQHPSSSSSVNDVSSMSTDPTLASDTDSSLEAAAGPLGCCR

Regarding `CC1(Nc2nc(Nc3cnn([C@H]4CCN(C5COC5)C[C@@H]4F)c3Cl)nc3[nH]cc(C#N)c23)CC1` [Example 52, 2-((5-chloro-1-((3S,4S)-3-fluoro-1-(oxetane-3-yl)piperidine-4-yl)-1H-pyrazole-4-yl)amino)((1-methylcyclopropyl)amino)-7H-pyrrolo[2,3-d]pyrimidine-5-carbonitrile], the remaining binding at 1 µM is 19% in experiment [1]; 5.8% in experiment [2]; 14% in experiment [3]; 21% in experiment [4]; 21% in experiment [5]; 0% in experiment [6].
Take `CCNc1nc(Nc2ccc(C(=O)N3CCC(N4CCOCC4)CC3)cc2OC)nc2[nH]cc(C(F)(F)F)c12` [Example 104, (4-((4-(ethylamino)-5-(trifluoromethyl)-7H-pyrrolo[2,3-d]pyrimidine-2-yl)amino)-3-methoxyphenyl)(4-morpholinopiperidine-1-yl)methanone]: the remaining binding at 1 µM in experiment [1] came out at 12%; in experiment [2], 1%; in experiment [3] it was 100%; in experiment [4] it was 100%; in experiment [5], 100%; in experiment [6], 25%.
On to `CNc1nc(Nc2ccc(C(=O)N3CCOCC3)cc2OC)nc2[nH]cc(C#N)c12` [Example 1, 2-((2-methoxy-4-(morpholine-4-carbonyl)phenyl)amino)-4-(methylamino)-7H-pyrrolo[2,3-d]pyrimidine-5-carbonitrile], for which the remaining binding at 1 µM in experiment [1] stood at 82%; in experiment [2], 11%; in experiment [3], 100%; in experiment [4] it was 74%; in experiment [5] it was 89%; in experiment [6], 0%.
